{
  "source": "patent US12280026B2",
  "about": "“Use of repirinast in the prophylaxis or treatment of renal fibrosis or kidney disease” (ALGERNON PHARMACEUTICALS INC., priority 2018, dated 2025)",
  "assay_type_in_all_cases": "in vivo",
  "key": {"[1]": {"test_system": "C57BL/6 mice with UUO surgical ligation", "assay": "Example 1: UUO mice, kidney weight evaluation (ligated vs non-ligated kidney)", "settings": "doses of Table 1", "experimental": "(§1) Male 9-12 week old C57BL/6 mice of 23-25 grams body weight were used. All mice were acclimated for a minimum of 5 days prior to the start of the study and housed individually in microisolators throughout the study in a 12:12 light-dark cycle on a standard maintenance mouse chow diet (Harlan Teklad 2018) with food and water given ad libitum. Prior to surgery, all mice were weighed for baseline body weight.\nThe UUO surgical intervention was performed according to previously described methods known in the art (Le Meur Y et al., Macrophage accumulation at a site of renal inflammation is dependent on the M-CSF/c-fms pathway, J Leukocyte Biol., 72:530-537; 2002). […]\n(§2) The dose selected for the animal studies was determined by taking the maximum known human daily dose, dividing by the average weight of an adult (˜60-70 kg) to get a human mg/kg dose. […]\nKidney weight: The UUO was then examined in situ to ensure that the surgical ligation ties remained patent. […] Weights of both kidneys were measured using a laboratory balance.\nKidney Weight Evaluation: Kidney weight indicating, which indicates functional and pathological changes in the kidney, was evaluated by measuring the weight of both the ligated (UUO) and non-ligated kidneys as previously described. […]"}, "[2]": {"assay": "Example 1: UUO mice, mean body weight change following surgery", "settings": "Example 1, mostly post-surgical day 14, male C57BL/6 mice, PO QD days 1-14, doses of Table 1", "experimental": "as §1\n(§3) The UUO surgical intervention was performed according to previously described methods known in the art (Le Meur Y et al., Macrophage accumulation at a site of renal inflammation is dependent on the M-CSF/c-fms pathway, J Leukocyte Biol., 72:530-537; 2002).\n(§4) All mice were first anesthetized by intraperitoneal injection with a rodent cocktail (ketamine 10 mg/mL and Xyaline 1 mg/mL) in normal saline (10 μL/g body weight). Pedal reflex and movement of the vibrissae were used to determine the state of unconsciousness. A state of unconsciousness was confirmed after a period of about 5 minutes in all animals. All mice were then shaved on the left side of the abdomen. The shaved area was first swabbed with iodine and then swabbed with alcohol. A vertical incision was made through the skin with a #22 scalpel and the skin was then retracted. A further incision of about 2.5 cm was then made through the peritoneum avoiding any major blood vessels. The peritoneum was then retracted and the left kidney was exposed.\n(§5) The left kidney was then brought to the surface by hooking the ureter directly beneath the kidney with sterile forceps and gently manipulating the kidney upward. The ureter was ligated at two points directly below the kidney with 5-0 surgical silk with excess suture cut away and discarded post-ligation. The kidney was then gently placed back to its correct anatomical position and the abdomen was lavaged with 1 mL sterile saline to replenish fluid loss. The peritoneum and then skin were sutured with 5-0 Mersilene, and the incision site was gently wiped with iodine. All mice were then placed individually in clean cages that were set on top of a thermal blanket until recovery at about 30-60 minutes later. In some examples, sham surgery was performed as a control by following all steps of the UUO surgical intervention procedure except ligation.\n(§6) Following surgery, the mice were divided into 14 individual study groups of 8 mice each and, following post-surgical recovery, administered a once-daily oral treatment for 14 days. The mice in 12 of the 14 study groups (hereafter known as “treatment groups”) had all received the UUO surgical ligation and were treated individually with a distinct pharmacologic compound as set out in Table 1. The mice in 2 of the 14 study groups were treated individually with a pharmaceutically acceptable vehicle with no active ingredient. The pharmaceutically acceptable vehicle in all groups was 0.5% carboxymethyl cellulose (CMC). All mice were sacrificed with CO2 on post-surgical day 15.\nas §2\nBody weight: The body weights were measured on days 1, 2, 5, 8, 10 and 14 using a laboratory balance.\nBody weights were measured on post-surgical days 1, 2, 5, 8, 10 and 14 as previously described. The mean body weight change of each study group was calculated using the body weight average of all mice in each study group."}, "[3]": {"test_system": "C57BL/6 mice with UUO surgical ligation", "assay": "Example 1: UUO mice, renal function evaluation (plasma BUN, creatinine)", "settings": "Example 1", "experimental": "as §1, §3, §4, §5, §6\nThe dose selected for the animal studies was determined by taking the maximum known human daily dose, dividing by the average weight of an adult (˜60-70 kg) to get a human mg/kg dose. Then that number was multiplied by 12 to convert to a mouse dose based on conventional dosing tables. See Nair and Jacob, J Basic Clin Pharm March 2016-May 2016, 7(2):27-31.\nSerum collection: A blood sample was then collected from all mice and plasma analyzed for urea nitrogen and creatinine. Plasma was stored at −80° C. for possible future analysis.\nRenal Function Evaluation: Renal function and disease progression was evaluated by BUN (blood urea nitrogen) as previously described. The BUN of each study group consisted of the BUN average of all mice in each study group."}, "[4]": {"test_system": "C57BL/6 mice with UUO surgical ligation", "assay": "Example 1: UUO mice, renal fibrosis evaluation (Sirius Red histology score)", "settings": "Bemithyl 200, Emoxypine 160, Suplatast Tosylate 60, Udenafil 40, Telmisartan 5 mg/kg PO QD, 4-methylbenzenesulfonate", "experimental": "as §1, §3, §4, §5, §6, §2\nHistopathology: Formalin-fixed kidney cross-section samples were subjected histopathological scoring with Sirius Red staining, and imaged at a magnification of ×20, using standard techniques. All three sections were stained and evaluated. […] The presence of interstitial damage and severity score was assessed according to the following criteria: 0=normal, 1=light, 2=moderate, 3=severe. […]"}},
  "note": "Entries after “also recorded” stand apart in the source; their conditions may differ.",
  "data": [
    {"smiles": "CCn1c(=O)c2c(nc(/C=C/c3ccc(OC)c(OC)c3)n2C)n(CC)c1=O", "note": "[Istradefylline, 8-[(E)-2-(3,4-dimethoxyphenyl)vinyl]-1,3-diethyl-7-methyl-3,7-dihydro-1H-purine-2,6-dione]", "values": [
      {"measurement": "Ligated kidney weight in comparison to control groups, in words", "setting": "[1]", "value": "increased in comparison to the remaining 13 study groups"},
      {"measurement": "Mean body weight change, comparison with control groups, in words", "setting": "[2]", "value": "greater decrease in body weight"}
    ]},
    {"smiles": "CCOCC(O)COc1ccc(NC(=O)CC[S+](C)C)cc1.Cc1ccc(S(=O)(=O)[O-])cc1", "note": "(stereo not drawn) [Suplatast Tosylate, (3-{[4-(3-ethoxy-2-hydroxypropoxy)phenyl]amino}-3-oxopropyl)(dimethyl)sulfonium 4-methylbenzenesulfonate]", "values": [
      {"measurement": "Mean body weight change, comparison with control groups, in words", "setting": "[2]", "value": "comparable to that of the surgery vehicle control group"},
      {"measurement": "Reduction in BUN compared to vehicle, significance in words", "setting": "[3]; Bonferroni post-test, Suplatast Tosylate 60, Iguratimod 15, Lobenzarit 48, Actarit 60, Udenafil 40 mg/kg PO QD", "value": "significant reductions in BUN"},
      {"measurement": "BUN in comparison to control groups, in words", "setting": "[3]; UUO, male C57BL/6 mice, PO QD days 1-14, doses of Table 1", "value": "decreased in comparison to the sham surgery control group"},
      {"measurement": "Kidney fibrosis / Histology Score, significance and comparison in words", "setting": "[4]", "value": "the same as the positive control treatment group; also recorded: significant reductions in kidney fibrosis; also recorded: significant reduction in fibrosis compared to vehicle"}
    ]}
  ]
}
